From ChEMBL document CHEMBL5038645, “Discovery of Mycobacterium tuberculosis Rv3364c-Derived Small Molecules as Potential Therapeutic Agents to Target SNX9 for Sepsis” (J Med Chem, 2022)
In brackets after ≈: the same amount, converted by molar mass. Activity calls are given as the source filed them. No cut-off for these calls is given here.

What was measured:
[1] = Antiinflammatory activity in […] cells assessed as reduction in LPS-induced NOX release at 10 uM pre incubated for 1 hr followed by LPS stimulation and measured after 30 mins by ELISA; type: functional
[2] = Antiinflammatory activity in […] cells assessed as reduction in LPS-induced IL-6 release at 10 uM pre incubated for 1 hr followed by LPS stimulation and measured after 30 mins by ELISA; type: functional
[3] = Antiinflammatory activity in […] cells assessed as reduction in LPS-induced TNF-alpha release at 10 uM pre incubated for 1 hr followed by LPS stimulation and measured after 30 mins by ELISA; type: functional
Mus musculus [4] = experiment: Protection against CLP-induced systemic sepsis SNX9+/+ mouse model assessed as reduction in serum IL-18 at 10 microg/kg, ip; type: functional, organism-based; conditions: dose 10.0 µg/kg
BMDM [5] = experiment: Effect on SNX9 expression in mouse BMDM cells at 1 to 5000 nM measured after 24 to 48 hrs; type: functional, cell-based; conditions: dose 1-5000 nM, time 24-48 hrs
Mus musculus [6] = experiment: Protection against CLP-induced ip dosed systemic sepsis SNX9+/+ mouse model; type: functional, organism-based; conditions: dose 1.0 µg/kg
[7] = Tmax in C57BL/6 mouse at 1 mg/kg, ip incubation up to 6 hrs by LC-MS/MS analysis; type: ADME, organism-based; conditions: in vivo
Mus musculus [8] = experiment: Protection against CLP-induced systemic sepsis SNX9+/+ mouse model assessed as reduction in liver damage at 10 microg/kg, ip by H and E staining based analysis; type: functional, organism-based; conditions: dose 10.0 µg/kg
BMDM [9] = experiment: Antiinflammatory activity in LPS-induced […] cells assessed as reduction in TNF-alpha production preincubated for 1 hr followed by LPS stimulation and measured after 30 mins by ELISA; type: functional, cell-based; conditions: dose 1-10000 nM
BMDM [10] = experiment: Inhibition of SNX9- p47phox protein-protein interaction in LPS-induced early endosome of mouse BMDM cells at 10 uM preincubated for 1 hrs followed by LPS stimulation for 30 mins; type: cell-based
[11] = Stability in human plasma assessed as parent compound remaining at 10 uM incubation upto 120 mins by LC-MS/MS analysis relative to control; type: ADME, cell-free; conditions: read-out: Stability
[12] = Half life in C57BL/6 mouse at 1 mg/kg, ip incubation up to 6 hrs by LC-MS/MS analysis; type: ADME, organism-based; conditions: in vivo
Mus musculus [13] = experiment: Protection against CLP-induced systemic sepsis SNX9+/+ mouse model assessed as reduction in serum IL-10 at 10 microg/kg, ip; type: functional, organism-based; conditions: dose 10.0 µg/kg
THP-1 [14] = experiment: Antiinflammatory activity in LPS-induced human THP-1 cells assessed as reduction in TNF-alpha production preincubated for 1 hr followed by LPS stimulation and measured after 30 mins by ELISA; type: functional, cell-based; conditions: dose 1-10000 nM
Mus musculus [15] = experiment: In vivo inhibition of SNX9-p47phox protein-protein interaction in CLP-induced systemic sepsis mouse model at 10 microg/kg, ip; type: functional, organism-based; conditions: dose 10.0 µg/kg
Mus musculus [16] = experiment: Protection against CLP-induced systemic sepsis SNX9+/+ mouse model assessed as reduction in lung damage at 10 microg/kg, ip by H and E staining based analysis; type: functional, organism-based; conditions: dose 10.0 µg/kg
BMDM [17] = experiment: Inhibition of SNX9- p47phox protein-protein interaction in mouse BMDM at 10 uM preincubated for 1 hrs followed by LPS stimulation for 30 mins; type: cell-based; conditions: time 1.5 hrs
Pseudomonas aeruginosa = experiment: Antibacterial activity against Pseudomonas aeruginosa ATCC 10145 assessed as bacterial clearance incubated for 6 to 24 hrs by microbroth dilution method; type: functional; conditions: time 6-24 hrs
Mus musculus [18] = experiment: Protection against CLP-induced systemic sepsis SNX9+/+ mouse model assessed as reduction in serum IL-6 at 10 microg/kg, ip; type: functional, organism-based; conditions: dose 10.0 µg/kg
[19] = Drug uptake in CLP-induced systemic sepsis mouse model in lung macrophages at 10 microg/kg, ip; type: ADME, tissue-based; conditions: in vivo, 0.01 mg/kg, dose 10 µg/kg
Staphylococcus aureus = experiment: Antibacterial activity against Staphylococcus aureus ATCC 6538 assessed as bacterial clearance incubated for 6 to 24 hrs by microbroth dilution method; type: functional; conditions: time 6-24 hrs
Mus musculus [20] = experiment: Protection against CLP-induced systemic sepsis SNX9+/+ mouse model assessed as reduction in spleen damage at 10 microg/kg, ip by H and E staining based analysis; type: functional, organism-based; conditions: dose 10.0 µg/kg
Mus musculus [21] = experiment: Protection against CLP-induced systemic sepsis SNX9+/+ mouse model assessed as mortality at 100 to 1000 microg/kg, ip; type: functional; conditions: dose 100-1000 µg/kg; at 100 to 1000 µg/kg
Mus musculus [22] = experiment: Protection against CLP-induced systemic sepsis SNX9+/+ mouse model assessed as reduction in infiltration of immune cells at 10 microg/kg, ip by H & E staining based analysis; type: functional, organism-based; conditions: dose 10.0 µg/kg
THP-1 [23] = experiment: Effect on SNX9 expression in human THP-1 cells at 1 to 5000 nM measured after 24 to 48 hrs; type: functional, cell-based; conditions: dose 1-5000 nM, time 24-48 hrs
THP-1 [24] = experiment: Inhibition of SNX9- p47phox protein-protein interaction in LPS-induced early endosome of human THP-1cells at 10 uM preincubated for 1 hrs followed by LPS stimulation for 30 mins; type: cell-based
[25] = AUC (0 to last) in C57BL/6 mouse at 1 mg/kg, ip incubation up to 6 hrs by LC-MS/MS analysis; type: ADME, organism-based; set-up: route intraperitoneal, dose 1 mg/kg, time <=6; conditions: in vivo
[26] = Cmax in C57BL/6 mouse at 1 mg/kg, ip incubation up to 6 hrs by LC-MS/MS analysis; type: ADME, organism-based; set-up: route intraperitoneal, dose 1 mg/kg, time <=6; conditions: in vivo
Mus musculus [27] = experiment: Protection against CLP-induced systemic sepsis SNX9+/+ mouse model assessed as reduction in serum TNF-alpha at 10 microg/kg, ip; type: functional, organism-based; conditions: dose 10.0 µg/kg
Mus musculus [28] = experiment: Protection against CLP-induced systemic sepsis SNX9+/+ mouse model assessed as reduction in serum IL-12p40 at 10 microg/kg, ip; type: functional, organism-based; conditions: dose 10.0 µg/kg
THP-1 [29] = experiment: Inhibition of SNX9- p47phox protein-protein interaction in human THP-1 at 10 uM preincubated for 1 hrs followed by LPS stimulation for 30 mins; type: cell-based
Escherichia coli = experiment: Antibacterial activity against Escherichia coli ATCC 12701 assessed as bacterial clearance incubated for 6 to 24 hrs by microbroth dilution method; type: functional; conditions: time 6-24 hrs
[30] = Stability in human liver microsomes assessed as parent compound remaining at 10 uM preincubated for 5 mins followed by NADPH addition measured after 30 mins by LC-MS/MS analysis relative to control; type: ADME, Microsome; conditions: time 35 min, read-out: Stability
Mus musculus [31] = experiment: Protection against CLP-induced systemic sepsis SNX9+/+ mouse model assessed as reduction in serum IL-1beta at 10 microg/kg, ip; type: functional, organism-based; conditions: dose 10.0 µg/kg
Mus musculus [32] = experiment: Protection against CLP-induced systemic sepsis SNX9-/- mouse model assessed as effect on mouse survival at 100 to 1000 microg/kg, ip; type: functional, organism-based; conditions: dose 100-1000 µg/kg
Mus musculus [33] = experiment: In vivo inhibition of SNX9-p47phox protein-protein interaction in CLP-induced systemic sepsis mouse model assessed as reduction ROS in splenocytes at 10 microg/kg, ip; type: functional, organism-based; conditions: dose 10.0 µg/kg
[34] = Drug uptake in CLP-induced systemic sepsis mouse model in liver macrophages at 10 microg/kg, ip; type: ADME, tissue-based; conditions: in vivo, 0.01 mg/kg, dose 10 µg/kg

NCCOCCOCCNc1nc(NCC2CCCO2)nc(-c2ccc(Cl)cc2)n1 (stereo unspecified)
inhibition at 10 µM [1]: 30.7% | inhibition at 10 µM [2]: 33.3% | inhibition at 10 µM [3]: 25.3%

CC(C)(C)c1ccc(-c2nc(NCCOCCOCCN)nc(NCc3ccco3)n2)cc1
inhibition at 10 µM [1]: 44.7% | inhibition at 10 µM [2]: 40.1% | inhibition at 10 µM [3]: 15.6%

CC(C)(C)c1ccc(-c2nc(NCCOCCOCCN)nc(NCC3CCCCC3)n2)cc1
inhibition at 10 µM [1]: 21.5% | inhibition at 10 µM [2]: 24.7% | inhibition at 10 µM [3]: 36.4%

CC(C)(C)c1ccc(-c2nc(NCCCOCCOCCCN)nc(NCC3CCCO3)n2)cc1 (stereo unspecified)
inhibition at 10 µM [1]: 19.1% | inhibition at 10 µM [2]: 22.3% | inhibition at 10 µM [3]: 13.8%

NCCOCCOCCNc1nc(NCC2CCCO2)nc(-c2ccc(OC(F)(F)F)cc2)n1 (stereo unspecified)
inhibition at 10 µM [1]: 38.4% | inhibition at 10 µM [2]: 16.7% | inhibition at 10 µM [3]: 10.9%

CC(C)(C)c1ccc(-c2nc(NCCOCCOCCN)nc(NCc3ccc(F)cc3)n2)cc1
inhibition at 10 µM [1]: 46.1% | inhibition at 10 µM [2]: 53.3% | inhibition at 10 µM [3]: 30.1%

CC(C)(C)c1ccc(-c2nc(NCCOCCOCCN)nc(NCC3CCCO3)n2)cc1.Cl (stereo unspecified)
Activity (Mus musculus [4]): Active | Activity (BMDM [5]): inactive | Activity (Mus musculus [6]): Dose-Dependent Effect | Tmax [7]: 10.2 min | Activity (Mus musculus [8]): Active | Activity (BMDM [9]): Dose-Dependent Effect | inhibition (BMDM [10]): Active | remaining at 2 h, 10 µM [11]: 93% | half-life [12]: 63.6 min | Activity (Mus musculus [13]): Active | Activity (THP-1 [14]): Dose-Dependent Effect | inhibition (Mus musculus [15]): Active | inhibition at 10 µM [1]: 57% | inhibition at 10 µM [2]: 66.7% | Activity (Mus musculus [16]): Active | inhibition (BMDM [17]): Active | MIC80 (Pseudomonas aeruginosa): 1.98 µg/mL | Activity (Mus musculus [18]): Active | Drug uptake [19]: Active | MIC80 (Staphylococcus aureus): 4 µg/mL | Activity (Mus musculus [20]): Active | Activity (Mus musculus [21]): 70% | inhibition at 10 µM [3]: 60.8% | Activity (Mus musculus [22]): Active | Activity (THP-1 [23]): inactive | inhibition (THP-1 [24]): Active | AUC(0-t) at 6 h [25]: 209 ng·h/mL | Cmax [26]: 136 ng/mL | Activity (Mus musculus [27]): Active | Activity (Mus musculus [28]): Active | inhibition (THP-1 [29]): Active | MIC80 (Escherichia coli): 1.98 µg/mL | remaining at 0.5 h, 10 µM [30]: > 100% | Activity (Mus musculus [31]): Active | Activity (Mus musculus [32]): inactive | inhibition (Mus musculus [33]): Active | Drug uptake [34]: Active

CC(C)(C)c1ccc(-c2nc(NCCOCCOCCN)nc(Nc3ccc(Cl)cc3)n2)cc1
inhibition at 10 µM [1]: 34.2% | inhibition at 10 µM [2]: 32.5% | inhibition at 10 µM [3]: 33.7%

CC(C)(C)c1ccc(-c2nc(NCCOCCOCCOCCN)nc(NCC3CCCO3)n2)cc1 (stereo unspecified)
inhibition at 10 µM [1]: 19.5% | inhibition at 10 µM [2]: 22.2% | inhibition at 10 µM [3]: 13.4%

Cc1ccc(-c2nc(NCCOCCOCCN)nc(NCC3CCCO3)n2)cc1 (stereo unspecified)
inhibition at 10 µM [1]: 40% | inhibition at 10 µM [2]: 50% | inhibition at 10 µM [3]: 50.1%

CC(C)(C)c1ccc(-c2nc(NCCOCCOCCN)nc(NCc3cccc(Cl)c3)n2)cc1
inhibition at 10 µM [1]: 41.5% | inhibition at 10 µM [2]: 43.3% | inhibition at 10 µM [3]: 50.1%

Cc1onc(-c2ccccc2)c1C(=O)N[C@@H]1C(=O)N2[C@@H]1SC(C)(C)[C@@H]2C(=O)O [OXACILLIN]
MIC80 (Pseudomonas aeruginosa): 1.98 µg/mL (≈ 4.93 µM) | MIC80 (Staphylococcus aureus): 0.06 µg/mL (≈ 0.149 µM) | MIC80 (Escherichia coli): 0.25 µg/mL (≈ 0.623 µM)

NCCOCCOCCNc1nc(NCC2CCCO2)nc(-c2ccc(C(F)(F)F)cc2)n1 (stereo unspecified)
inhibition at 10 µM [1]: 46.1% | inhibition at 10 µM [2]: 23.4% | inhibition at 10 µM [3]: 10.1%

CC(C)(C)c1ccc(Nc2nc(NCCOCCOCCN)nc(-c3ccc(C(C)(C)C)cc3)n2)cc1
inhibition at 10 µM [1]: 29.2% | inhibition at 10 µM [2]: 32.8% | inhibition at 10 µM [3]: 23.2%
